# Data from patent US20260325473A1, “N-Beta-Hydroxybutyryl-Amino Acids and Related Compositions and Methods” (The Board of Trustees of the Leland Stanford Junior …, priority 2023, published 2026).
# Assay: Keto-Med study, plasma metabolites
# Assay type: in vivo
# Conditions: human; 4 weeks WFKD vs baseline
# Method: Targeted metabolomics. Targeted measurements were performed using an Agilent 6470 triple quadrupole LC-MS instrument. MS analysis was performed using AJS in negative mode. The AJS source parameters were set as follows: the dry gas temperature was set at 250° C. with a gas flow of 12 l/min and the nebulizer pressure at 25 psi; the sheath gas temperature was set to 300° C. with the sheath gas flow set at 12 l/min; and the capillary voltage was set to 3,500 V. Separation of polar metabolites was performed as described above in the ‘Untargeted measurements of metabolites by LC-MS’ section. Multiple reaction monitoring was performed for the indicated metabolites with the listed dwell times, fragmentor voltage, collision energies, cell accelerator voltages and polarities. Quantification of the endogenous metabolite concentrations were performed by generating a standard curve with known concentrations of each metabolite. Metabolite standards were analyzed alongside the plasma samples using the same targeted triple quadrupole LC/MS method. A calibration standard curve generated from the metabolite standard concentrations and total peak areas were used to calculate the concentrations of each endogenous metabolite. The dilution of the plasma during the sample preparation was also taken into account for the quantification.
# Keto-Med study. Keto-Med was a single-site, randomized, crossover, interventional trial comparing 2 metabolically distinct diets (well-formulated ketogenic diet, WFKD; and Mediterranean-plus diet, Med-Plus) among individuals with prediabetes and T2DM. Forty participants aged ≥18 years with prediabetes or T2DM followed the WFKD and the Med-Plus for 12 weeks each, in random order. Participants were randomly assigned into 1 of 2 different diet sequences: WFKD for 12 weeks (phase 1) and then the Med-Plus for 12 weeks (phase 2), or the opposite order. Ad libitum intake was advised, and participants were guided to follow 2 sets of dietary guidelines that shared 3 important similarities (incorporating nonstarchy vegetables and avoiding added sugars and refined grains) and 3 important differences (incorporating compared with avoiding legumes, fruits, and whole, intact grains). During the WFKD phase, participants were counseled to sustain nutritional ketosis by limiting carbohydrates to 20-50 g/day and keeping proteins to ~1.5 g/kg ideal body weight/day, with the remaining kcals coming from fats. Participants were also instructed to consume >3 servings/day of nonstarchy vegetables and maintain adequate mineral and fluid intake for the ketogenic state (sodium, 3-5 g/day; potassium, 3-4 g/day). […]
compound,measurement,value
"CC(O)CC(=O)N[C@H](C(=O)O)C(C)C (stereo partly shown) [BHB-Val, N-betahydroxybutyryl-valine]",induction of plasma keto amino acids on WFKD,Robust induction
